Results published in publication PMC5446891, “Inhibition of α-Amylases by Condensed and Hydrolysable Tannins: Focus on Kinetics and Hypoglycemic Actions” (Enzyme Research, 2017).

Tests used:
[1] = tested on: intestinal starch absorption (in vivo α-amylase); assay: glycemic levels of rats after starch administration; parameters: species or system Wistar rats; details: intragastric with starch 1 g/kg, 60 min; acarbose 50 mg/kg, tannins 100-500 mg/kg
Experimental: Male healthy Wistar rats weighing 200-250 g were used in all experiments. The rats were housed, fed, and treated in accordance with the universally accepted guidelines for animal experimentation. Prior to the investigations, the animals were kept for one week under standard environmental conditions. Throughout the experimentation period, the rats were maintained in single cages and had access to standard pelleted diet and water ad libitum. Food was withdrawn 18 h before the experiments. All experiments involving rats were done in accordance with the worldwide accepted ethical guidelines for animal experimentation and previously approved by the Ethics Committee for Animal Experimentation of the University of […]á (Protocol number 067/2014-CEUA-UEM). Rats were divided into 9 groups (n = 4 rats per group). To group I (positive control) commercial corn starch (1 g per kg body weight) was given intragastrically. Group II (negative control) received only tap water. […] Fasting blood glucose levels were determined before the administration of starch and amylase inhibitors (0 time). […] Blood glucose from cut tail tips was determined using Accu-Chek® Active Glucose Meter. […] The areas were determined with the corresponding data in Figures 6(a) and 6(b) using the numerical integration procedures of the Scientist Software from MicroMath Scientific Software (Salt Lake City, UT). […]

[2] = molecular target: T1, porcine pancreatic α-amylase (Sus scrofa, UniProt P00690); parameters: method as in doi:10.1016/j.foodres.2013.12.004, PMID 8944767; details: cited from earlier work
T1 construct: purchased Sigma-Aldrich Co. Type VI-B
T1 sequence (P00690 16-511): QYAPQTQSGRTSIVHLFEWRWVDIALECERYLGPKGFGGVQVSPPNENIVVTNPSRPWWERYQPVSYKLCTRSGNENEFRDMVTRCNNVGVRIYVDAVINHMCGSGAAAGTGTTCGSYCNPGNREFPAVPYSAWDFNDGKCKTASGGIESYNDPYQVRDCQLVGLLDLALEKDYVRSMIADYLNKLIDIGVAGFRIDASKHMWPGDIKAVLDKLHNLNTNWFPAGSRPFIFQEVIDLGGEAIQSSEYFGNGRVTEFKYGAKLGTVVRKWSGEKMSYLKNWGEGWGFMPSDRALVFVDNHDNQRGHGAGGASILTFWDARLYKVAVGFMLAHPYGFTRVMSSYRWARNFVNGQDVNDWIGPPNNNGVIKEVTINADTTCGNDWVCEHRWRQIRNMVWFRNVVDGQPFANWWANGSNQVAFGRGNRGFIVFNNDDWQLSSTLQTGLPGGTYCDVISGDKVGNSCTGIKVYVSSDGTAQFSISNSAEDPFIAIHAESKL

In the case of `C[C@H]1O[C@H](O[C@H]2[C@H](O)[C@@H](O)[C@@H](O[C@H]3[C@H](O)[C@@H](O)C(O)O[C@@H]3CO)O[C@@H]2CO)[C@H](O)[C@@H](O)[C@@H]1N[C@H]1C=C(CO)[C@@H](O)[C@H](O)[C@H]1O` (some centres unmarked) [acarbose], the “effect on glycemic levels after starch administration” value [1] is listed as “diminished the increase in blood glucose concentration” and the “inhibitory potency compared with the tannins” value [2] is listed as “much better inhibitor of the pancreatic α-amylase than the tannins”.
